One block for each compound: values may come before it.
What was measured:
Misshapen-like kinase 1 = Misshapen-like kinase 1 (Homo sapiens, UniProt Q8N4C8); test: Selectivity interaction (SelectScreen profiling (Invitrogen)) EUB0000607a MINK1; conditions: at 2 µM
[1] = Selectivity interaction (KinomeScan (DiscoverX)) EUB0000595a CDPK1; conditions: at 10 µM
[2] = biological target: T1, Myotonin-protein kinase (Homo sapiens) (UniProt Q09013); conditions: at 10 µM
T1 sequence (whole entry): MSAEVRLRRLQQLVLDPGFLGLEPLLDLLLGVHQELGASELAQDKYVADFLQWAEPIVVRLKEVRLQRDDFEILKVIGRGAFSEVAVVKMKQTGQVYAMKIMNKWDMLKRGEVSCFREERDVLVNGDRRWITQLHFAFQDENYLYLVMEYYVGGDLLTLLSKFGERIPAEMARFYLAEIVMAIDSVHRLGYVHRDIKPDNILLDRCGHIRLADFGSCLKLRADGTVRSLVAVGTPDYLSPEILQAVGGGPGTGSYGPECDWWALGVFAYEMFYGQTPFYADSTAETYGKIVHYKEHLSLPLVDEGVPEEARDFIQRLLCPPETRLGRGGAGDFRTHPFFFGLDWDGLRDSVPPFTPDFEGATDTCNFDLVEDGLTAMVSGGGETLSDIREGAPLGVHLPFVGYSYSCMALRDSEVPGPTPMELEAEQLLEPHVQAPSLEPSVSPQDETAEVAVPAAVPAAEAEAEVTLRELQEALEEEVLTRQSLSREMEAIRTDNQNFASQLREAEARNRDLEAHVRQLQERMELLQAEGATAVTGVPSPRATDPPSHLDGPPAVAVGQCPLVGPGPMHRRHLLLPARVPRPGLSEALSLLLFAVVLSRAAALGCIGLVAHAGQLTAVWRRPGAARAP

[3] = biological target: T2, Serine/threonine-protein kinase TAO2 (Homo sapiens) (UniProt Q9UL54); test: Selectivity interaction (KinomeScan (DiscoverX)) EUB0000092b TAOK2; conditions: at 10 µM
T2 sequence (whole entry): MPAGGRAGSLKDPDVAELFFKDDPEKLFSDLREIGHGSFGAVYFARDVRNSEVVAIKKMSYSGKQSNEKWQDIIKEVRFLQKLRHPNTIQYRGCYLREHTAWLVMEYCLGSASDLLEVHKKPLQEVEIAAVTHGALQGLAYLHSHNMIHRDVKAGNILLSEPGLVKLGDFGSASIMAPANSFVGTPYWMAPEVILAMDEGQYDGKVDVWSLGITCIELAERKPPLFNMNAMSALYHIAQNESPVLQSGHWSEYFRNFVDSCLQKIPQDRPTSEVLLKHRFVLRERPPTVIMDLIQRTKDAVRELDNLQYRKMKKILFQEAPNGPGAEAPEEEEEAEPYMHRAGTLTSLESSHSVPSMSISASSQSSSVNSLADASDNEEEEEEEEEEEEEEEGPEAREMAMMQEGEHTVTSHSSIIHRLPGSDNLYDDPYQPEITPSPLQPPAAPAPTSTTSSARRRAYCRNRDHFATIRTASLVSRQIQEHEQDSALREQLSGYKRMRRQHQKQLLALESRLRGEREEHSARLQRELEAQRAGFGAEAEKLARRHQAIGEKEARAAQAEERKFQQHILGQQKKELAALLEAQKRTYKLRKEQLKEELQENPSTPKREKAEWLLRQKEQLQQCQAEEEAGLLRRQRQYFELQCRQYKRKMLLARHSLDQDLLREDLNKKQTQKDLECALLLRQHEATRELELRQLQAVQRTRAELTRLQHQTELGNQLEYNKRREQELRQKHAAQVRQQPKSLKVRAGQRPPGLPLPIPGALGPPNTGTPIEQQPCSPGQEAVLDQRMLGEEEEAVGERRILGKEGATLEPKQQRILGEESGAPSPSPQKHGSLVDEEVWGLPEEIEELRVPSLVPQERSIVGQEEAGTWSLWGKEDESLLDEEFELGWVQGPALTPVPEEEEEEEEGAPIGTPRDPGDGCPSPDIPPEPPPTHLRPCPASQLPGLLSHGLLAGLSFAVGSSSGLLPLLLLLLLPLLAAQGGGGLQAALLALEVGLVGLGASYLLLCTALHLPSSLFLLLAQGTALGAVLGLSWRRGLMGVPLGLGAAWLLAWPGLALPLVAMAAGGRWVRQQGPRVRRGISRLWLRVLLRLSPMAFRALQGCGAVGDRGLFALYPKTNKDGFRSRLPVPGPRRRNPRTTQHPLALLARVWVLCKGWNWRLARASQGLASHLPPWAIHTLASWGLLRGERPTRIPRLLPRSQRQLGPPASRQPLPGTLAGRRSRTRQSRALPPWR

[4] = biological target: T3, Bromodomain-containing protein 1 (Homo sapiens) (UniProt O95696); test: Selectivity interaction (Human bromodomain panel (DSF assay)) EUB0000233b BRD1
T3 sequence (whole entry): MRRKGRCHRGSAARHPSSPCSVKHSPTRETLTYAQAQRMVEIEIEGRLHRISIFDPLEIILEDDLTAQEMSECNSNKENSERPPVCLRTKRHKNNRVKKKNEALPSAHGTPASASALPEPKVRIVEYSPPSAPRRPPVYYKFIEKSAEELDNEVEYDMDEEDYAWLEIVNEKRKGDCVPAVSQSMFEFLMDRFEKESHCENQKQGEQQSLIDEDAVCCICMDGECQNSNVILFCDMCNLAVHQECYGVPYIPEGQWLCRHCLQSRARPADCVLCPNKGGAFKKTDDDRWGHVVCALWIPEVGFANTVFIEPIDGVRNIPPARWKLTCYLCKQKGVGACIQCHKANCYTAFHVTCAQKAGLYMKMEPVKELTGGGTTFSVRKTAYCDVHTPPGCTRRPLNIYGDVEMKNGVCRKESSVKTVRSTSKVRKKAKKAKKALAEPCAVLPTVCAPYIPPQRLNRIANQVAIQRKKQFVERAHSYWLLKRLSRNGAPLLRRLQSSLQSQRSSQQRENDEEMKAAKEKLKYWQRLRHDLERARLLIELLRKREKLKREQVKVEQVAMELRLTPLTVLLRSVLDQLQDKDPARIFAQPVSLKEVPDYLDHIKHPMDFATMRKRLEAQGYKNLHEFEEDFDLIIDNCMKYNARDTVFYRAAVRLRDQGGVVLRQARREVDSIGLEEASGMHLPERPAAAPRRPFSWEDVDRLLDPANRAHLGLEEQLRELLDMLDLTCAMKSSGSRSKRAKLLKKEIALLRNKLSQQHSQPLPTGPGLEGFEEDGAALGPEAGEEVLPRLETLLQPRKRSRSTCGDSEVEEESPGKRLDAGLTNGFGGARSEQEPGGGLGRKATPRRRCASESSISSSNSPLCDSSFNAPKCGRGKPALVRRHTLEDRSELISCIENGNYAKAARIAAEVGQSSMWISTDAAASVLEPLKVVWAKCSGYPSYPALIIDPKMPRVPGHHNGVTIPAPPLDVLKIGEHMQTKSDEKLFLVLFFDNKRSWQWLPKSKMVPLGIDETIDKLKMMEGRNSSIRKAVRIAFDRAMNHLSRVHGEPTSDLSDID

Sequence of Misshapen-like kinase 1 (Q8N4C8 whole entry, looked up): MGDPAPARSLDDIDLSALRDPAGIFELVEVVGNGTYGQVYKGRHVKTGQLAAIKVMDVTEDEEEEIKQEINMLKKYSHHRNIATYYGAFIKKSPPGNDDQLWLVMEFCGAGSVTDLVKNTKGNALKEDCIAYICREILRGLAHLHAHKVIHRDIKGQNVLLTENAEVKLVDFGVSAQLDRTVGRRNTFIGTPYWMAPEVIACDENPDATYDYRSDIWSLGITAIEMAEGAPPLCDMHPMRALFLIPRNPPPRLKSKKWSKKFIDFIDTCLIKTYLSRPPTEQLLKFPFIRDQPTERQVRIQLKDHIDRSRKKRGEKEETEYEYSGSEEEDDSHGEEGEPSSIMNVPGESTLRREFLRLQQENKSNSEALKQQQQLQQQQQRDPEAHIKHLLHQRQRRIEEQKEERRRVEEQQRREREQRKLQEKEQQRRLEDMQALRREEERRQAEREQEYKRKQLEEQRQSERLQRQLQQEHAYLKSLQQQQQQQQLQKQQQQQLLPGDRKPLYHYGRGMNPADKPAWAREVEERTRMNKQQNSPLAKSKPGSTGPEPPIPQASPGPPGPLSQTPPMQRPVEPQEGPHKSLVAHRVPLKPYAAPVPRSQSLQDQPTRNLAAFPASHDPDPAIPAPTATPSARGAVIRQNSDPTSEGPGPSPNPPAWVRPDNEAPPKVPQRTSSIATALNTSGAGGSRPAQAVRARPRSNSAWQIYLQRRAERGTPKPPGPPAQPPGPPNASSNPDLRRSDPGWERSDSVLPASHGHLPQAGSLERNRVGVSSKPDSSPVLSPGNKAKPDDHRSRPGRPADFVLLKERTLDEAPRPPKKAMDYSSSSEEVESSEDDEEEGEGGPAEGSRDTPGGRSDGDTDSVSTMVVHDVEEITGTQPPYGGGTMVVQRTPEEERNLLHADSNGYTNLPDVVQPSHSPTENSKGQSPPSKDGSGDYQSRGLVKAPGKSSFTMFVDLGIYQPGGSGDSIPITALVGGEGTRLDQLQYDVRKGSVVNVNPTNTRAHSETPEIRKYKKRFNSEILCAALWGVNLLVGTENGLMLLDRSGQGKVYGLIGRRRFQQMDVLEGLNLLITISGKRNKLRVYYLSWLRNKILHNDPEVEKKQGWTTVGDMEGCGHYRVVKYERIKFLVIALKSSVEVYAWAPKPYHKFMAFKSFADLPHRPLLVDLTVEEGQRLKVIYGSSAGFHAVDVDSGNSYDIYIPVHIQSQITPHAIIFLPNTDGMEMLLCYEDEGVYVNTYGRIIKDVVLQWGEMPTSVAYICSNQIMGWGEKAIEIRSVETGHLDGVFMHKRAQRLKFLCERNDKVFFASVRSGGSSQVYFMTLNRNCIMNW

Structure (SMILES): CNC(=O)Nc1ccc(-c2nc(N3CC4CCC(C3)O4)c3cnn(C4CCC5(CC4)OCCO5)c3n2)cc1
% of inhibition (Misshapen-like kinase 1): 14%

Structure (SMILES): COCC(=O)NC/C=C/c1ccc2ncnc(Nc3ccc(Oc4ccc(C)nc4)c(C)c3)c2c1 [CP-724714]
% of control [1]: 25%

Structure (SMILES): Cc1cc([C@@H](C)Nc2ccccc2C(=O)O)c2nc(N3CCOCC3)cc(=O)n2c1 [AZD-6482]
% of control [2]: 100%

Structure (SMILES): CCC(=O)N1CCN(c2ccc(-n3c(=O)ccc4cnc5ccc(-c6cnc7ccccc7c6)cc5c43)cc2C(F)(F)F)CC1
% of control [3]: 84%

dTM [4]: < 2 K
Structure (SMILES): CN(C)CCCOc1ccc(-c2cc(NCCCn3cccn3)nc(S(C)(=O)=O)n2)cc1
